Tests used:
[1] = system: brown stink bug (Euschistus heros); test: Field trial on soybean plots against brown stink bug, kill efficiency of the nymphs; type: in vivo; details: nymphs on soybean cv. BRS232, 14 days after spray treatment; application rate g a.i./ha: imidacloprid 72, (I-2) 24, mixture 72 + 24, methamidophos 480; tank mix with 0.1% a.i. methylated soya oil
Text: (§1) The expected activity for a given combination of two active substances can be calculated as described by S. R. Colby, Weeds 15 (1967), 20-22, as follows:
(§2) If the actual insecticidal kill efficiency is greater than calculated, then the combination is superadditive in its kill efficiency, i.e. a synergistic effect is present. In this case, the kill efficiency actually observed must be greater than the value for the expected kill efficiency (E) calculated with the abovementioned formula.
(§3) After the desired period of time, the kill efficiency is determined in %. Here, 100% means that all animals have been killed; 0% means that no animals have been killed.
Methamidophos (SL 600) was tested concomitantly as commercially available standard. The water application rate is 200 l/ha.

[2] = system: red-banded stink bug (Piezodorus guildinii); test: Caged soybean plot trial against red-banded stink bug, kill efficiency of the adults; type: in vivo; details: application rate g a.i./ha: imidacloprid 70, (I-2) 24, mixture 72 + 24, methamidophos 480, tank mix with 0.1% a.i. methylated soya oil; for Kill efficiency as calculated by Abbott (%) 1 d: adults on soybean cv. CO-32, 1 day after spray treatment; for Kill efficiency as calculated by Abbott (%) 3 d: adults on soybean cv. CO-32, 3 days after spray treatment
Text: as §1, §2, §3
Plots approximately 1 m^2 in size, provided with cages and planted with soybean plants (Glycine max) cv. “CO-32” are treated in four replications against the red-banded stink bug (Piezodorus guildinii) using a pneumatically operated backpack sprayer. A mixture of the active substance (I-2) and imidacloprid (SC 480) is applied in comparison with the active substance (I-2) (SC 240) on its own and imidacloprid (SC 200) on its own at the application rates specified, as a tank mix with 0.1% a.i. methylated soya oil (EC 850). Methamidophos (SL 600) was tested concomitantly as commercially available standard. The water application rate is 300 l/ha. The evaluation is performed 1 and 3 days after the treatment by determining the kill efficiency of the adults.

Row | SMILES | Kill efficiency as calculated by Abbott (%) 14 d [1] | Kill efficiency as calculated by Abbott (%) 1 d [2] | Kill efficiency as calculated by Abbott (%) 3 d [2]
1 | COP(N)(=O)SC (stereo not drawn) [Methamidophos] | 27% | 52.5% | 87.5%
2 | O=[N+]([O-])/N=C1\NCCN1Cc1ccc(Cl)nc1 [Imidacloprid, imidacloprid] | 21% | 65% | 65%
